The results in this text go back to patent US9012651B2, “TRPV3 modulators” (AbbVie Inc., priority 2011, dated 2015).

The structures appear in SMILES notation.

Sequence of human TRPV3 receptors (Q8NET8 whole entry): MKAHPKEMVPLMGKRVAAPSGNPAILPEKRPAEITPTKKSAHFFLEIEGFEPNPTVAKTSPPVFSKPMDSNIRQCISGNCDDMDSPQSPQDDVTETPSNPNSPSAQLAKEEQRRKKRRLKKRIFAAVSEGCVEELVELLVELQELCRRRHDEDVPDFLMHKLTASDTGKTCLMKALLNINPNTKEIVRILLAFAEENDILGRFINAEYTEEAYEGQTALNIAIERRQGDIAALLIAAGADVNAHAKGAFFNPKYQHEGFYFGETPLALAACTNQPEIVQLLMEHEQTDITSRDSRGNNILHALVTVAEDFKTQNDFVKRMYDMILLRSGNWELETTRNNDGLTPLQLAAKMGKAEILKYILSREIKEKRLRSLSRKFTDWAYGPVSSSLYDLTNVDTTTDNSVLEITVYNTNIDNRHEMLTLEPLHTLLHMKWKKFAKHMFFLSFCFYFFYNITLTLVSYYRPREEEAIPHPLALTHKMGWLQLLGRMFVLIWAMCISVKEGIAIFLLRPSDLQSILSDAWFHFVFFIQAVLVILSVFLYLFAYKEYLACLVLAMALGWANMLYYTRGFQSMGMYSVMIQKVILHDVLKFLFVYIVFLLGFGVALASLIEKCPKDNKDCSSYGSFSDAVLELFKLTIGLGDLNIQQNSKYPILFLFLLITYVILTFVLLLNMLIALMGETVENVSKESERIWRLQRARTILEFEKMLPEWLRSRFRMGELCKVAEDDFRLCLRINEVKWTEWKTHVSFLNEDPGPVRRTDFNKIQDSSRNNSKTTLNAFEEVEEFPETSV

For this experiment, the target named is human TRPV3 receptors (Homo sapiens (Human), UniProt Q8NET8). Briefly: Calcium flux assay (FLIPR TETRA), inhibition of the 2-APB response. The experiment is classed as cell-based. The settings on record: recombinant HEK293 cells stably expressing TRPV3, Calcium-4 dye, 2-APB at its EC80. The procedure, abridged:
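HEK293 cells stably expressing human and mouse TRPV3, plated the day before and dye-loaded 90-120 min in the dark, read on FLIPR Tetra. Peak fluorescence increase over baseline was expressed as percent of the maximal 2-APB response without compound.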
In general terms: Calcium assays in cells follow changes in intracellular calcium, usually with a dye or a luminescent sensor.
A word on the IC50: it is the midpoint of a concentration-inhibition curve. Turning to `OC[C@H](NCc1ccnc(-c2ccc(C(F)(F)F)cn2)n1)C1CC1` [Example 196, (2R)-2-cyclopropyl-2-[({2-[5-(trifluoromethyl)pyridin-2-yl]pyrimidin-4-yl}methyl)amino]ethanol], the IC50 is more than 20000 nM.

`CC(C)(O)[C@H](CO)NCc1ccnc(-c2ccc(C(F)(F)F)cn2)n1` [Example 197, (2S)-3-methyl-2-[({2-[5-(trifluoromethyl)pyridin-2-yl]pyrimidin-4-yl}methyl)amino]butane-1.3-diol]: the 50% inhibitory concentration (IC50) is more than 20000 nM.

On to `C[C@@H](O)[C@@H](CO)NCc1ccnc(-c2ccc(C(F)(F)F)cn2)n1` [Example 198, (2R,3R)-2-[({2-[5-(trifluoromethyl)pyridin-2-yl]pyrimidin-4-yl}methyl)amino]butane-1,3-diol], for which the IC50 is more than 20000 nM.

With `CC(C)[C@H](CO)NCc1nc(C2CC3CCC2C3)ccc1F` (stereo partly drawn) [Example 199, (2R)-2-({[6-(bicyclo[2.2.1]hept-2-yl)-3-fluoropyridin-2-yl]methyl}amino)-3-methylbutan-1-ol], the IC50 was determined as 1590 nM.

As for `CC1CCC(c2ccc(F)c(CN[C@@H](CO)C(C)C)n2)CC1` (stereo partly drawn) [Example 200, (2R)-2-({[3-fluoro-6-(4-methylcyclohexyl)pyridin-2-yl]methyl}amino)-3-methylbutan-1-ol], the IC50 is 1030 nM.

With `CCC1CCC(c2ccc(F)c(CN[C@@H](CO)C(C)C)n2)CC1` (stereo partly drawn) [Example 201, (2R)-2-({[6-(4-ethylcyclohexyl)-3-fluoropyridin-2-yl]methyl}amino)-3-methylbutan-1-ol], the IC50 was determined as 770 nM.

`CC(C)[C@H](CO)NCc1nc(C2CCC(C)(C)CC2)ccc1F` [Example 202, (2R)-2-({[6-(4,4-dimethylcyclohexyl)-3-fluoropyridin-2-yl]methyl}amino)-3-methylbutan-1-ol]: the IC50 came to 790 nM.

With `CC(C)[C@H](CO)NCc1nc(C2CCC(F)(F)CC2)ccc1F` [Example 203, (2R)-2-({[6-(4,4-difluorocyclohexyl)-3-fluoropyridin-2-yl]methyl}amino)-3-methylbutan-1-ol], the IC50 turned out to be 530 nM.

Turning to `CC(C)[C@H](CO)NCc1nc(C2CCOCC2)ccc1F` [Example 204, (2R)-2-({[3-fluoro-6-(tetrahydro-2H-pyran-4-yl)pyridin-2-yl]methyl}amino)-3-methylbutan-1-ol], the IC50 is more than 20000 nM.

Turning to `CC(C)[C@H](CO)NCc1nc(C2CCN(C(=O)OC(C)(C)C)CC2)ccc1F` [Example 205, tert-butyl 4-[5-fluoro-6-({[(2R)-1-hydroxy-3-methylbutan-2-yl]amino}methyl)pyridin-2-yl]piperidine-1-carboxylate], the IC50 came out at 2460 nM.

On to `CC(C)[C@H](CO)NCc1nc(C2CCCCCC2)ccc1F` [Example 206], for which the IC50 worked out at 1230 nM.

Turning to `CC(C)[C@H](CO)NCc1ccnc(-c2ccc(S(=O)(=O)C(F)(F)F)cc2)n1` [Example 207, (2R)-3-methyl-2-{[(2-{4-[(trifluoromethyl)sulfonyl]phenyl}pyrimidin-4-yl)methyl]amino}butan-1-ol], the IC50 was found to be 680 nM.

On to `O=S(=O)(c1ccc(-c2nccc(CNC3(CO)CCCCC3)n2)cc1)C(F)(F)F` [Example 208, (1-{[(2-{4-[(trifluoromethyl)sulfonyl]phenyl}pyrimidin-4-yl)methyl]amino}cyclohexyl)methanol], for which the IC50 came to 13500 nM.

`CC[C@H](CO)NCc1ccnc(-c2ccc(S(=O)(=O)C(F)(F)F)cc2)n1` [Example 209, (2R)-2-{[(2-{4-[(trifluoromethyl)sulfonyl]phenyl}pyrimidin-4-yl)methyl]amino}butan-1-ol]: the IC50 was found to be 1470 nM.

On to `COCC(CO)NCc1ccnc(-c2ccc(S(=O)(=O)C(F)(F)F)cc2)n1` (centres unmarked) [Example 210, 3-methoxy-2-{[(2-{4-[(trifluoromethyl)sulfonyl]phenyl}pyrimidin-4-yl)methyl]amino}propan-1-ol], for which the IC50 stood at 18500 nM.

As to `CC(C)(O)[C@H](CO)NCc1ccnc(-c2ccc(S(=O)(=O)C(F)(F)F)cc2)n1` [Example 211, (2S)-3-methyl-2-{[(2-{4-[(trifluoromethyl)sulfonyl]phenyl}pyrimidin-4-yl)methyl]amino}butane-1,3-diol], the IC50 was more than 20000 nM.

For `C[C@@H](O)[C@@H](CO)NCc1ccnc(-c2ccc(S(=O)(=O)C(F)(F)F)cc2)n1` [Example 212, (2R,3R)-2-{[(2-{4-[(trifluoromethyl)sulfonyl]phenyl}pyrimidin-4-yl)methyl]amino}butane-1,3-diol], the IC50 came to 2530 nM.

With `CC(C)[C@H](CO)NCc1nc(C2CCC(C(C)(C)C)CC2)ccc1F` (stereo partly drawn) [Example 213, (2R)-2-({[6-(4-tert-butylcyclohexyl)-3-fluoropyridin-2-yl]methyl}amino)-3-methylbutan-1-ol], the IC50 came to 790 nM.

`CC(C)[C@H](CO)NCc1nc(C2CCC3(CC2)OCCO3)ccc1F` [Example 214, (2R)-2-({[6-(1,4-dioxaspiro[4.5]dec-8-yl)-3-fluoropyridin-2-yl]methyl}amino)-3-methylbutan-1-ol]: the IC50 worked out at 8280 nM.

Regarding `CC(C)[C@H](CO)NCc1nc(C2CCCC3(C2)OCCO3)ccc1F` (stereo partly drawn) [Example 215, (2R)-2-({[6-(1,4-dioxaspiro[4.5]dec-7-yl)-3-fluoropyridin-2-yl]methyl}amino)-3-methylbutan-1-ol], the IC50 is 5670 nM.

Take `CC(C)[C@H](CO)NCc1nc(C2CCC(C(F)(F)F)CC2)ccc1F` (stereo partly drawn) [Example 216, (2R)-2-[({3-fluoro-6-[4-(trifluoromethyl)cyclohexyl]pyridin-2-yl}methyl)amino]-3-methylbutan-1-ol]: the IC50 was 310 nM.

For `CC(C)[C@H](CO)NCc1nc(C2CCc3ccccc3C2)ccc1F` (stereo partly drawn) [Example 217, (2R)-2-({[3-fluoro-6-(1,2,3,4-tetrahydronaphthalen-2-yl)pyridin-2-yl]methyl}amino)-3-methylbutan-1-ol], the IC50 came out at 350 nM.

Regarding `CC(C)[C@H](CO)NCc1nc(C2CCCOC2)ccc1F` (stereo partly drawn) [Example 218, (2R)-2-({[3-fluoro-6-(tetrahydro-2H-pyran-3-yl)pyridin-2-yl]methyl}amino)-3-methylbutan-1-ol], the IC50 is more than 20000 nM.

For `CC(C)[C@H](CO)NCc1nc(C2CCCN(C(=O)OC(C)(C)C)C2)ccc1F` (stereo partly drawn) [Example 219, tert-butyl 3-[5-fluoro-6-({[(2R)-1-hydroxy-3-methylbutan-2-yl]amino}methyl)pyridin-2-yl]piperidine-1-carboxylate], the IC50 was found to be 660 nM.

As to `CC(C)[C@H](CO)NCc1nc(C2CCCC2)ccc1F` [Example 220, (2R)-2-{[(6-cyclopentyl-3-fluoropyridin-2-yl)methyl]amino}-3-methylbutan-1-ol], the IC50 amounted to 480 nM.

In the case of `CC(C)[C@H](CO)NCc1nc(C2=CCC(C(F)(F)F)CC2)ccc1F` (stereo partly drawn) [Example 223, (2R)-2-[({3-fluoro-6-[4-(trifluoromethyl)cyclohex-1-en-1-yl]pyridin-2-yl}methyl)amino]-3-methylbutan-1-ol], the 50% inhibitory concentration (IC50) is 80 nM.

Turning to `CC(C)[C@H](CO)NCc1nc(C2=CCC(F)(F)CC2)ccc1F` [Example 224, (2R)-2-({[6-(4,4-difluorocyclohex-1-en-1-yl)-3-fluoropyridin-2-yl]methyl}amino)-3-methylbutan-1-ol], the IC50 stood at 140 nM.

Consider `CC(C)[C@H](CO)NCc1cccc(-c2ccccc2)n1` [Example 225, (2R)-3-methyl-2-{[(6-phenylpyridin-2-yl)methyl]amino}butan-1-ol], for which the IC50 turned out to be 2920 nM.

For `CC(C)[C@H](CO)NCc1cccc(-c2cccc([Si](C)(C)C)c2)n1` [Example 226, (2R)-3-methyl-2-[({6-[3-(trimethylsilyl)phenyl]pyridin-2-yl}methyl)amino]butan-1-ol], the IC50 is 600 nM.

With `CC(C)[C@H](CO)NCc1cccc(-c2ccc([Si](C)(C)C(C)(C)C)s2)n1` [Example 227, (2R)-2-{[(6-{5-[tert-butyl(dimethyl)silyl]thiophen-2-yl}pyridin-2-yl)methyl]amino}-3-methylbutan-1-ol], the IC50 stood at 1800 nM.

Turning to `CC(C)[C@H](CO)NCc1nc(-c2ccc(F)c(F)c2)ccc1F` [Example 228, (2R)-2-({[6-(3,4-difluorophenyl)-3-fluoropyridin-2-yl]methyl}amino)-3-methylbutan-1-ol], the IC50 was found to be 140 nM.

For `CC(C)[C@H](CO)NCc1nc(N2CCC(F)(F)CC2)ncc1F` [Example 231, (2R)-2-({[2-(4,4-difluoropiperidin-1-yl)-5-fluoropyrimidin-4-yl]methyl}amino)-3-methylbutan-1-ol], the IC50 was 1530 nM.

For `CC(C)[C@H](CO)NCc1nc(/C=C/c2cccc(F)c2)ccc1F` [Example 233, (2R)-2-[({3-fluoro-6-[(E)-2-(3-fluorophenyl)ethenyl]pyridin-2-yl}methyl)amino]-3-methylbutan-1-ol], the IC50 turned out to be 380 nM.

With `COc1ccc(C#Cc2ccc(F)c(CN[C@@H](CO)C(C)C)n2)cc1` [Example 235, (2R)-2-[({3-fluoro-6-[(4-methoxyphenyl)ethynyl]pyridin-2-yl}methyl)amino]-3-methylbutan-1-ol], the IC50 amounted to 1110 nM.

For the compound `CC(C)[C@H](CO)NCc1nc(C#CCC2CCCCC2)ccc1F` [Example 236, (2R)-2-({[6-(3-cyclohexylprop-1-yn-1-yl)-3-fluoropyridin-2-yl]methyl}amino)-3-methylbutan-1-ol], the IC50 amounted to 980 nM.

As to `CC(C)(CO)NCc1cccc(-c2cccc([Si](C)(C)C)c2)n1` [Example 237, 2-methyl-2-[({6-[3-(trimethylsilyl)phenyl]pyridin-2-yl}methyl)amino]propan-1-ol], the IC50 was 5750 nM.

Regarding `CC(C)[C@H](CO)NCc1nc(C#Cc2ccc(F)cc2)ccc1F` [Example 238, (2R)-2-[({3-fluoro-6-[(4-fluorophenyl)ethynyl]pyridin-2-yl}methyl)amino]-3-methylbutan-1-ol], the IC50 worked out at 290 nM.

For `CC(C)[C@H](CO)NCc1nc(C#Cc2ccc(F)c(F)c2)ccc1F` [Example 239, (2R)-2-[({6-[(3,4-difluorophenyl)ethynyl]-3-fluoropyridin-2-yl}methyl)amino]-3-methylbutan-1-ol], the IC50 turned out to be 370 nM.
